Results reported in US20250099511A1, “PHARMACEUTICAL COMPOSITION FOR PREVENTING OR TREATING CANCER” (ENTEROBIOME INC., priority 2022, published 2025).
Values after ≈ are worked out from the molar mass of the structure shown. Like-named read-outs stand apart in the source and are kept apart here.

Columns and labels:
Assay type in all cases: cell-based
[1] = tested on: Faecalibacterium prausnitzii EB-FPDK9; experiment: MIC by broth microdilution (CLSI); settings: for susceptibility category (S/I/R) by MIC breakpoints: strain EB-FPDK9; for MIC: test strain EB-FPDK9
[2] = tested on: Faecalibacterium prausnitzii A2-165; experiment: MIC by broth microdilution (CLSI), type strain; settings: for susceptibility category (S/I/R) by MIC breakpoints: strain A2-165; for MIC: test strain A2-165
[3] = tested on: Faecalibacterium prausnitzii EB-FPDK3; experiment: MIC by broth microdilution (CLSI); settings: for susceptibility category (S/I/R) by MIC breakpoints: strain EB-FPDK3; for MIC: test strain EB-FPDK3
[4] = tested on: Faecalibacterium prausnitzii EB-FPYYK1; experiment: MIC by broth microdilution (CLSI); settings: for susceptibility category (S/I/R) by MIC breakpoints: strain EB-FPYYK1; for MIC: test strain EB-FPYYK1
[5] = tested on: Bacteroides thetiotaomicron ATCC 29741; experiment: MIC by broth microdilution (CLSI), QC strain
[6] = tested on: Faecalibacterium prausnitzii EB-FPDK11; experiment: MIC by broth microdilution (CLSI); settings: for susceptibility category (S/I/R) by MIC breakpoints: strain EB-FPDK11; for MIC: test strain EB-FPDK11
[7] = tested on: Faecalibacterium prausnitzii strains of the present invention; experiment: Antimicrobial susceptibility, summary for all strains; settings: all Faecalibacterium prausnitzii strains of Table 5
[8] = Faecalibacterium prausnitzii, EBFPDK9, read-out: MIC
[9] = Faecalibacterium prausnitzii, A2165, read-out: MIC
[10] = Faecalibacterium prausnitzii, EBFPDK3, read-out: MIC
[11] = Faecalibacterium prausnitzii, EBFPYYK1, read-out: MIC
[12] = Faecalibacterium prausnitzii, EBFPDK11, read-out: MIC

In the case of `CO/N=C(\C(=O)N[C@@H]1C(=O)N2C(C(=O)O)=CCS[C@H]12)c1csc(N)n1` [CTZ, ceftizoxime], the “susceptibility category (S/I/R) by MIC breakpoints” value (“susceptibility category (S/I/R)” for short) ([1]; CTZ breakpoints) is reported as “(R) (≥128)”, the MIC [1, 8] is reported as 128 µg/mL (≈ 334 µM) and the “susceptibility category (S/I/R)” value ([2]; CTZ breakpoints) is reported as “(I) (64)”. For the same compound, the MIC [2, 9] was 64 µg/mL (≈ 167 µM), the “susceptibility category (S/I/R)” value ([3]; CTZ breakpoints) was “(S) (≤32)” and the MIC [3, 10] was 16 µg/mL (≈ 41.7 µM). The “susceptibility category (S/I/R)” value ([4]; CTZ breakpoints) was “(R) (≥128)”, the MIC [4, 11] was 128 µg/mL (≈ 334 µM) and the MIC ([5]; Bacteroides, ATCC29741) was 16 µg/mL (≈ 41.7 µM). The “susceptibility category (S/I/R)” value ([6]; CTZ breakpoints) was “(R) (≥128)” and the MIC [6, 12] was 128 µg/mL (≈ 334 µM).

`C[C@@H](O)[C@H]1C(=O)N2C(C(=O)O)=C(S[C@@H]3CN[C@H](C(=O)N(C)C)C3)[C@H](C)[C@H]12` [MEM, meropenem] was tested, and the MIC [1, 8] was greater than 64 µg/mL, the “susceptibility category (S/I/R)” value ([1]; MEM breakpoints) was “(R) (≥16)” and the MIC [2, 9] was greater than 64 µg/mL. For the same compound, the “susceptibility category (S/I/R)” value ([2]; MEM breakpoints) was “(R) (≥16)”, the MIC [3, 10] was greater than 64 µg/mL and the “susceptibility category (S/I/R)” value ([3]; MEM breakpoints) was “(R) (≥16)”. The MIC [4, 11] was greater than 64 µg/mL, the “susceptibility category (S/I/R)” value ([4]; MEM breakpoints) was “(R) (≥16)” and the MIC ([5]; Bacteroides, ATCC29741) was 0.5 µg/mL (≈ 1.3 µM). The MIC [6, 12] was greater than 64 µg/mL and the “susceptibility category (S/I/R)” value ([6]; MEM breakpoints) was “(R) (≥16)”.

piperacillin-tazobactam [PTZ] was tested, and the “susceptibility category (S/I/R)” value ([1]; PTZ breakpoints) was “(S) (≤32/4)”, the MIC [1] was 32/4 and the “susceptibility category (S/I/R)” value ([2]; PTZ breakpoints) was “(R) (≥128/4)”. The MIC [2] was >256/4, the “susceptibility category (S/I/R)” value ([3]; PTZ breakpoints) was “(S) (≤32/4)” and the MIC [3] was 32/4. For the same compound, the “susceptibility category (S/I/R)” value ([4]; PTZ breakpoints) was “(R) (≥128/4)”, the MIC [4] was >256/4 and the MIC ([5]; QC ATCC 29741) was 8/4. The “susceptibility category (S/I/R)” value ([6]; PTZ breakpoints) was “(R) (≥128/4)” and the MIC [6] was >256/4.

For `COc1c(N2C[C@@H]3CCCN[C@@H]3C2)c(F)cc2c(=O)c(C(=O)O)cn(C3CC3)c12` [MXF, moxifloxacin], the MIC [1, 8] was 32 µg/mL (≈ 79.7 µM), the “susceptibility category (S/I/R)” value ([1]; MXF breakpoints) was “(R) (≥8)” and the MIC [2, 9] was 16 µg/mL (≈ 39.9 µM). The “susceptibility category (S/I/R)” value ([2]; MXF breakpoints) was “(R) (≥8)”, the MIC [3, 10] was greater than 32 µg/mL and the “susceptibility category (S/I/R)” value ([3]; MXF breakpoints) was “(R) (≥8)”. The MIC [4, 11] was greater than 32 µg/mL, the “susceptibility category (S/I/R)” value ([4]; MXF breakpoints) was “(R) (≥8)” and the MIC ([5]; Bacteroides, ATCC29741) was 8 µg/mL (≈ 19.9 µM). The MIC [6, 12] was 32 µg/mL (≈ 79.7 µM) and the “susceptibility category (S/I/R)” value ([6]; MXF breakpoints) was “(R) (≥8)”.

`CCC[C@@H]1C[C@@H](C(=O)N[C@@H]([C@H]2O[C@H](SC)[C@H](O)[C@@H](O)[C@H]2O)[C@H](C)Cl)N(C)C1` [CLI, clindamycin] was tested, and the “susceptibility category (S/I/R)” value ([1]; CLI breakpoints) was “(S) (≤2)”, the MIC [1, 8] was no more than 0.125 µg/mL and the “susceptibility category (S/I/R)” value ([2]; CLI breakpoints) was “(S) (≤2)”. For the same compound, the MIC [2, 9] was no more than 0.125 µg/mL, the “susceptibility category (S/I/R)” value ([3]; CLI breakpoints) was “(S) (≤2)” and the MIC [3, 10] was no more than 0.125 µg/mL. For the same compound, the “susceptibility category (S/I/R)” value ([4]; CLI breakpoints) was “(S) (≤2)”, the MIC [4, 11] was no more than 0.125 µg/mL and the “susceptibility category (S/I/R)” value ([6]; CLI breakpoints) was “(S) (≤2)”. For the same compound, the MIC [6, 12] was no more than 0.125 µg/mL.

For `O=C(N[C@H](CO)[C@H](O)c1ccc([N+](=O)[O-])cc1)C(Cl)Cl` [CHL, chloramphenicol], the “susceptibility category (S/I/R)” value ([1]; CHL breakpoints) was “(R) (≥32)”, the MIC [1, 8] was 32 µg/mL (≈ 99 µM) and the “susceptibility category (S/I/R)” value ([2]; CHL breakpoints) was “(R) (≥32)”. The MIC [2, 9] was 64 µg/mL (≈ 198 µM), the “susceptibility category (S/I/R)” value ([3]; CHL breakpoints) was “(S) (≤8)” and the MIC [3, 10] was 8 µg/mL (≈ 24.8 µM). The “susceptibility category (S/I/R)” value ([4]; CHL breakpoints) was “(R) (≥32)”, the MIC [4, 11] was 256 µg/mL (≈ 792 µM) and the MIC ([5]; Bacteroides, ATCC29741) was 8 µg/mL (≈ 24.8 µM). The “susceptibility category (S/I/R)” value ([6]; CHL breakpoints) was “(S) (≤8)” and the MIC [6, 12] was 8 µg/mL (≈ 24.8 µM).

With `Cc1ncc([N+](=O)[O-])n1CCO` [MTZ, metronidazole] the MIC [1, 8] was less than 0.25 µg/mL, the “susceptibility category (S/I/R)” value ([1]; MTZ breakpoints) was “(S) (≤8)” and the “susceptibility or resistance of all the strains to the antibiotic” value [7] was “susceptibility”. For the same compound, the MIC [2, 9] was 4 µg/mL (≈ 23.4 µM), the “susceptibility category (S/I/R)” value ([2]; MTZ breakpoints) was “(S) (≤8)” and the MIC [3, 10] was 1 µg/mL (≈ 5.84 µM). For the same compound, the “susceptibility category (S/I/R)” value ([3]; MTZ breakpoints) was “(S) (≤8)”, the MIC [4, 11] was 2 µg/mL (≈ 11.7 µM) and the “susceptibility category (S/I/R)” value ([4]; MTZ breakpoints) was “(S) (≤8)”. For the same compound, the MIC ([5]; Bacteroides, ATCC29741) was 2 µg/mL (≈ 11.7 µM), the MIC [6, 12] was 0.5 µg/mL (≈ 2.92 µM) and the “susceptibility category (S/I/R)” value ([6]; MTZ breakpoints) was “(S) (≤8)”.
